# Several values for one entry are separate records, joined by “and”; a condition that tells them apart may be missing. Equal values may be shown once.
# Tests used:
# [1] = Detection of encapsulation efficiency, drug loading concentration and total RNA concentration (RiboGreen); type: physicochemical
# Procedure, shortened: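 LNP samples were diluted in 1×TE to approximately […], then mixed with 1×TE and 0.1% Triton X-100 buffers. After 10 minutes at 37 °C, RiboGreen (1:200) was added and fluorescence read against an mRNA standard, giving encapsulation efficiency, drug loading concentration and total RNA concentration.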
# female BALB/C mice [2] = experiment: In vivo imaging in mice of Fluc-mRNA LNP formulations (mRNA expression and duration)
# Procedure, shortened: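 Female BALB/C mice (4-6 weeks, 17-19 g) received LNP carrying […] Fluc-mRNA intramuscularly. At 6h, 24 h, 48h and 7d, fluorescent imaging substrate was given intraperitoneally and after 5 minutes average radiance, as a measure of expressed protein, was imaged on an IVIS Spectrum system.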
# female BALB/C mice [3] = experiment: Distribution of liposomes in mice (protein expression in liver, spleen, lung, heart and kidney); type: in vivo; settings: mouse, in vivo
# [4] = LNP formulation prepared from the cationic lipid
compound,measurement,setting,value
CCCCCCCCCCCOC(=O)CCCN(CCO)CCN(CCO)CCCCCC(=O)OC(CCCCCCCC)CCCCCCCC [YK-407],Drug loading concentration,[1]; [4],35.67 µg/mL
same,Encapsulation efficiency,[1]; [4],85.2%
same,Total RNA concentration,[1]; [4],40.77 µg/mL
same,encapsulation efficiency higher than ALC-0315,[1]; difference vs ALC-0315,21.9%
same,encapsulation efficiency higher than HIMA,[1]; difference vs HIMA (HHMA),25.0%
same,encapsulation efficiency higher than SM-102,[1]; difference vs SM-102,22.3%
same,encapsulation efficiency higher than YK-009,[1]; difference vs YK-009,21.8%
same,encapsulation efficiency higher than compound 21,[1]; difference vs compound 21,27.2%
same,encapsulation efficiency higher than compound 23,[1]; difference vs compound 23,29.0%
same,"drug loading concentration, times that of ALC-0315",[1]; ratio vs ALC-0315,1.33
same,"total RNA concentration, times that of ALC-0315",[1]; ratio vs ALC-0315,1.08
same,"drug loading concentration, times that of HIMA",[1]; ratio vs HIMA (HHMA),1.09
same,"total RNA concentration, times that of HIMA",[1]; ratio vs HIMA (HHMA),1.12
same,"drug loading concentration, times that of SM-102",[1]; ratio vs SM-102,1.34
same,"total RNA concentration, times that of SM-102",[1]; ratio vs SM-102,1.13
same,"drug loading concentration, times that of YK-009",[1]; ratio vs YK-009,1.30
same,"total RNA concentration, times that of YK-009",[1]; ratio vs YK-009,1.06
same,"drug loading concentration, times that of compound 21",[1]; ratio vs compound 21,1.62
same,"total RNA concentration, times that of compound 21",[1]; ratio vs compound 21,1.41
same,"drug loading concentration, times that of compound 23",[1]; ratio vs compound 23,1.78
same,"total RNA concentration, times that of compound 23",[1]; ratio vs compound 23,1.31
same,"average radiation intensity, times that of ALC-0315",female BALB/C mice [2]; 6 h,4.76
same,"average radiation intensity, times that of HHMA",female BALB/C mice [2]; 6 h,6.05
same,"average radiation intensity, times that of SM-102",female BALB/C mice [2]; 6 h,5.79
same,"average radiation intensity, times that of compound 21",female BALB/C mice [2]; 6 h,6.66
same,"average radiation intensity, times that of compound 23",female BALB/C mice [2]; 6 h,6.88
same,"expression amount in mice, times that of YK-415",female BALB/C mice [2]; 6 h,33.96
same,"expression amount in mice, times that of YK-417",female BALB/C mice [2]; 6 h,66.16
same,"average radiation intensity, times that of ALC-0315",female BALB/C mice [2]; 24 h,10.62
same,"average radiation intensity, times that of HHMA",female BALB/C mice [2]; 24 h,16.80
same,"average radiation intensity, times that of SM-102",female BALB/C mice [2]; 24 h,16.34
same,"average radiation intensity, times that of compound 21",female BALB/C mice [2]; 24 h,18.15
same,"average radiation intensity, times that of compound 23",female BALB/C mice [2]; 24 h,19.97
same,"expression amount in mice, times that of YK-415",female BALB/C mice [2]; 24 h,31.25
same,"expression amount in mice, times that of YK-417",female BALB/C mice [2]; 24 h,100.86
same,"mRNA expression in mice, times that of YK-411",female BALB/C mice [2]; 24 h,996.97 and 1000
same,"average radiation intensity, times that of ALC-0315",female BALB/C mice [2]; 48 h,22 and 22.06
same,"average radiation intensity, times that of HHMA",female BALB/C mice [2]; 48 h,27 and 26.55
same,"average radiation intensity, times that of SM-102",female BALB/C mice [2]; 48 h,27 and 26.93
same,"average radiation intensity, times that of compound 21",female BALB/C mice [2]; 48 h,28 and 28.07
same,"average radiation intensity, times that of compound 23",female BALB/C mice [2]; 48 h,27 and 26.89
same,"expression amount in mice, times that of YK-415",female BALB/C mice [2]; 48 h,56.07
same,"expression amount in mice, times that of YK-417",female BALB/C mice [2]; 48 h,125.66 and 120
same,"mRNA expression in mice, times that of YK-411",female BALB/C mice [2]; 48 h,907.99
same,"average radiation intensity, times that of ALC-0315",female BALB/C mice [2]; 7 d,6.90
same,"average radiation intensity, times that of HHMA",female BALB/C mice [2]; 7 d,8.13
same,"average radiation intensity, times that of SM-102",female BALB/C mice [2]; 7 d,7.20
same,"average radiation intensity, times that of compound 21",female BALB/C mice [2]; 7 d,7.59
same,"average radiation intensity, times that of compound 23",female BALB/C mice [2]; 7 d,7.93
same,"expression amount in mice, times that of YK-415",female BALB/C mice [2]; 7 d,11.98
same,"expression amount in mice, times that of YK-417",female BALB/C mice [2]; 7 d,21.20 and 20
same,"mRNA expression in mice, times that of YK-411",female BALB/C mice [2]; 7 d,100.85 and 100
same,"average radiation intensity, 6 h","female BALB/C mice [2]; Fluc-mRNA LNP intramuscular, 6 h after administration",4001500
same,"average radiation intensity, 24 h","female BALB/C mice [2]; Fluc-mRNA LNP intramuscular, 24 h after administration",2015870
same,"average radiation intensity, 48 h","female BALB/C mice [2]; Fluc-mRNA LNP intramuscular, 48 h after administration",885288
same,"average radiation intensity, 7 d","female BALB/C mice [2]; Fluc-mRNA LNP intramuscular, 7 d after administration",48410
same,protein expression in the liver,female BALB/C mice [3],had no protein expression in the liver
same,protein expression in the spleen,female BALB/C mice [3],had protein expression in the spleen

# — patent US12545637B2, “Extrahepatic targeted cationic lipid compound with high efficiency and low toxicity and its composition” (BEIJING YOUCARE KECHUANG PHARMACEUTICAL TECHNOLOGY CO., LTD., priority 2023, dated 2026)
